From article PMC10254444, “Targeting Myeloperoxidase Activity and Neutrophil ROS Production to Modulate Redox Process: Effect of Ellagic Acid and Analogues” (Molecules, 2023)
“Also recorded” adds a separate entry of the source.

Legend:
[1] = DPPH radical scavenging assay
Procedure: The DPPH assay was performed according to the method developed by Brand-Williams et al., though slightly modified. A solution of 1 mM DPPH in absolute methanol was stirred for 40 min. Absorbance of the solution was adjusted to 0.650 ± 0.020 at 517 nm using fresh absolute methanol. For replicates, the DPPH assay was performed using a microplate reader. For this, 2 µL of EA taken as a standard or sample (EA analogue) were mixed with 198 µL of DPPH solution and incubated for 30 min in the dark covered with aluminum foil. When reacting with an antioxidant, the DPPH• radical is converted into DPPH, and its color changes from purple to yellow. The antioxidant effect may be easily evaluated by observing the decrease in visible absorption. The absorbance decrease was monitored at 510 nm for 30 min with a Multiskan Ascent 96-plate reader (ThermoLabsystem, Finland). A control consisted of 2 µL of DMSO in 198 µL of DPPH solution. A similar formula (Equation (1)) was applied to determine the DPPH radical-scavenging activity.

[2] = biological target: T1, human myeloperoxidase (MPO) (Homo sapiens, UniProt P05164); experiment: MPO activity by SIEFED assay; format: biochemical
T1 construct: purchased Calbiochem Millipore
T1 sequence (P05164 49-745): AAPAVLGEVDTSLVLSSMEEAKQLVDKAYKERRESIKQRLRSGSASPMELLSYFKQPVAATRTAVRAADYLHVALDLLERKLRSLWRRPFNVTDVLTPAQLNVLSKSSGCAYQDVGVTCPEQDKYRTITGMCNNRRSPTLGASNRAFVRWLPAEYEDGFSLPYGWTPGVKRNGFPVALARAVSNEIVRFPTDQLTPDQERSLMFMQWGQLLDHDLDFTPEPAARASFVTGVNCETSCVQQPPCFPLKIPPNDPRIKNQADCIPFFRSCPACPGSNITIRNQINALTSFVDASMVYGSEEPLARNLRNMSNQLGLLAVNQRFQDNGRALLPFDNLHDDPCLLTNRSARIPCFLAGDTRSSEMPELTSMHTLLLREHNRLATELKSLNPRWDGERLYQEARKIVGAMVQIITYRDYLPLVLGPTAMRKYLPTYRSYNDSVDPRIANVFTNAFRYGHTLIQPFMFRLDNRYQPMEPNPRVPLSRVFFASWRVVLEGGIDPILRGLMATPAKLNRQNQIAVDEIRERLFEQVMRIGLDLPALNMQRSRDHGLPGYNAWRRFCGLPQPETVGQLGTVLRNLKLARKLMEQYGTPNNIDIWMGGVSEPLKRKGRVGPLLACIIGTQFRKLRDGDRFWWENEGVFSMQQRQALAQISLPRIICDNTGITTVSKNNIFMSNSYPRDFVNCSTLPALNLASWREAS
Procedure: Measurement of the peroxidase activity of MPO was performed by a classical enzymatic assay and by SIEFED assay as described by Nyssen et al.. The MPO solution was prepared with purified human MPO in dilution buffer (PBS 20 mM at pH 7.4 with 5 g/L BSA and 0.1% Tween-20). The solutions of EA or analogue, at final concentrations ranging from 10^−8 M to 10^−5 M, were incubated for 10 min with human MPO at a final concentration of 5 mU/mL before further use. The revelation of MPO activity was performed by monitoring the enzyme-catalyzed oxidation of Amplex Red in the presence of H2O2 (10 μM) and nitrite (4.5 mM) in phosphate buffer at pH 7.4.
Samples with MPO and various concentrations of […] were prepared and incubated as with the classical assay. An amount of 100 μL of each mixture (MPO alone or MPO + EA/DMSO) was then loaded into the wells of a SIEFED microtiter plate coated with rabbit polyclonal antibodies (3 μg/mL) against human MPO and incubated for 2 h at 37 °C in darkness. After washing up the wells, the activity of the enzyme captured by the antibodies was measured by adding 10 μL sodium nitrite solution (4.5 mM, final concentration) and 100 μL of a reactional solution containing 10 μM H2O2 and 40 μM Amplex® in phosphate buffer (50 mM) at pH 7.4. The oxidation of Amplex® Red into the fluorescent adduct resorufin (λexcitation = 544 nm; λemission = 590 nm) was monitored for 30 min at 37 °C with a fluorescent plate reader (Fluoroskan Ascent, Fisher Scientific). As for the MPO direct assay, a control assay set as the relative value of MPO activity was performed with purified MPO in the presence of PBS instead of the samples of EA or analogue dissolved in DMSO. In this SIEFED assay, MPO was bonded by the antibodies into the wells, and EA/analogue was discarded in the washing step before starting the measurement of the enzymatic activity. For both MPO assays, the inhibition percentage was calculated using a similar formula (Equation (1)) as described above.

[3] = tested on: PMA-activated neutrophils; experiment: ROS production by PMA-activated neutrophils (L012 chemiluminescence); format: cell-based, equine
Procedure: Equine neutrophils were isolated from whole blood using EDTA disodium salt (1.6 mg/mL) as an anticoagulant. The blood was drawn from the jugular vein of healthy horses bred and fed under identical conditions without medical treatment. All the experiments were realized with the approval of the ethics committee of the Faculty of Veterinary Medicine of the University of Liege (agreement number 1474). Briefly, the neutrophils were isolated at room temperature (18–22 °C) by centrifugation (400× g; 45 min; 20 °C) on a discontinuous Percoll density gradient according to the method previously described. The cells were gently collected and washed with two volumes of physiological saline solution. After the supernatant removal, the cell pellets were re-suspended in 2 mL PBS and counted for further use.
The ROS produced by PMA-activated neutrophils were measured by L012-enhanced chemiluminescence (CL) under an adaptation of the method previously described by Benbarek et al. and Derochette et al.. Neutrophil suspensions were distributed in the wells (neutrophils/well, 143 μL PBS) of a 96-well microtiter plate (White Combiplate 8, Fisher Scientific) and incubated for 10 min at 37 °C with 2 μL of EA or analogue to reach final concentrations of 10^−8 M, 10^−7 M, 10^−6 M, and 10^−5 M. After incubation, 25 μL CaCl2 (10 mM) and 20 μL L-012 (10^−4 M) were added into the wells (final volume of 200 μL). […] A control was performed with neutrophils activated with PMA (positive Ctrl) in the presence of PBS instead of ellagic acid analogue. Another control was performed with PMA-activated neutrophils in the presence of the vehicle solution of ellagic acid or analogue (1% DMSO) (DMSO, final concentration) and was taken as 100% CL response. The negative control was performed with unstimulated neutrophils (NA) with the CL probe alone. The inhibition percentage was calculated using a similar formula (Equation (1)) as described above.

SMILES	DPPH inhibition percentage ([1]; at the highest concentration) [%]	MPO activity, SIEFED assay (in words) [2]	Inhibition of neutrophil ROS production (in words) [3]	Inhibition of neutrophil ROS production ([3]; highest concentration) [%]	IC50 [1] [µM]
CN(C)C(=O)Oc1cc2c(=O)oc3c(OC(=O)N(C)C)c(OC(=O)N(C)C)cc4c(=O)oc(c1OC(=O)N(C)C)c2c34 [compound 6, Sevellagic acid]	−3	weak activity or the absence of inhibition activity	less active than all the other tested compounds	58	–
CCOC1Oc2cc(C(=O)OC)cc(O)c2O1 (stereo not shown) [compound 11, methyl 2-ethoxy-7-hydroxybenzo[d][1,3]dioxole-5-carboxylate]	–	activator of MPO activity; also recorded: promote, rather than inhibit, MPO activity	good inhibitory effect	–	5.22 ± 0.05
